Assay [1] concerns UXF 1138. As to the kind of experiment: Cytotoxicity, propidium iodide-based monolayer assay. The format is cell-based. The conditions noted are these: 96 h; UXF 1138, uterine sarcoma; four days of treatment; T/C=50%; read-out: Absolute IC50. Here is the method: (§1) The cytotoxicity was tested for compounds of the invention on five different cell-lines, namely LXFL 1121, MAXF 401, MMXF L-636, PRXF PC-3M and UXF 1138 which are respectively lung large cell carcinoma, breast adeno carcinoma, multiple myeloma, prostate adeno carcinoma and uterine sarcoma.
(§2) Therefore, the compounds have a cytotoxicity against tumor cells and can be used for treating cancer. Materials and Methods Compound Handling A working stock solution of the test compounds was prepared in DMSO at a concentration of 33 mM or 8.25 mM, and small aliquots were stored at −20° C. On each day of an experiment, a frozen aliquot of the working stock solution was thawed and stored at room temperature prior to and during treatment. All liquid handling steps were performed using the Tecan Freedom EVO 200 platform. First, serial 2-fold dilutions of the 33 mM DMSO working stock solution were done in DMSO. The DMSO dilutions were then diluted 1:22 into cell culture medium in an intermediate dilution plate. Finally, 10 μl taken from the intermediate dilution plate were transferred to 140 μl/well of the final assay plate. Thus, the DMSO serial dilutions were diluted 1:330 with cell culture medium, and the DMSO concentration in the assay was 0.3% v/v. Tumor Cell Lines The cell lines used in this study were derived from solid tumors as well as from hematological malignancies. Cell lines were routinely passaged once or twice weekly and maintained in culture for up to 20 passages. Most cell lines were grown at 37° C. in a humidified atmosphere with 5% CO2 in RPMI 1640 medium (25 mM HEPES, with L-glutamine, #FG1385, Biochrom, Berlin, Germany) supplemented with 10% (v/v) fetal calf serum (Sigma, Taufkirchen, Germany) and 0.05 mg/mL gentamicin (Life Technologies, Karlsruhe, Germany). […] Briefly, cells were harvested from exponential phase cultures, counted and plated in 96 well flat-bottom microtiter plates at a cell density of 4,000 to 40,000 cells/well dependent on the cell line's growth rate. […] After an incubation period of 1-2 hours at room temperature, fluorescence (FU) was measured using the Enspire Multimode Plate Reader (excitation λ=530 nm, emission λ=620 nm) to quantify the amount of attached viable cells. Data Evaluation An assay was considered fully evaluable if the following quality control criteria were fulfilled: • Z′-factor calculated within the assay plate ≥0.5 • control/background ratio >3.0 • coefficient of variation in the growth control wells ≤30% Drug effects were expressed in terms of the percentage of the fluorescence signal, obtained by comparison of the mean signal in the treated wells with the mean signal of the untreated controls (expressed by the test-versus-control value, T/C-value [%]): […]

Assay [2] has as its system PRXF PC-3M. The assay is described as above. The assay is classed as cell-based. The conditions noted are these: Homo sapiens, 96 h, prostate adeno carcinoma, four days of treatment, T/C=50%, read-out: Absolute IC50. As to the method:
as §1, §2

The subject of assay [3] is MMXF L-363. Described as above. The settings on record: Homo sapiens, 96 h; MMXF L-363, multiple myeloma; four days of treatment; T/C=50%; read-out: Absolute IC50. The assay is classed as cell-based. As to the method:
as §1, §2

Assay [4] concerns MAXF 401. The description is as above. The format is cell-based. The conditions noted are these: Homo sapiens, MAXF401, 96 h; MAXF 401, breast adeno carcinoma; four days of treatment; T/C=50%; read-out: Absolute IC50. Here is the method:
as §1, §2

For assay [5], the system named is H1N1 (influenza A/New Caledonia/20/99). As to the kind of experiment: Antiviral effect on A549 cells infected with H1N1. The format is cell-based, H1N1 A/New Caledonia/20/99 virus. The settings on record: Influenza A virus, MOI 0.1, 48 h post-infection, MUNANA neuraminidase readout. In short, it runs like this:
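A549 cells dosed with test compounds over a concentration range and infected at once with clinical isolate H1N1 A/New Caledonia/20/99 (MOI 0.1) in DMEM with […] TPCK trypsin, 37 °C. At 48 h, supernatant neuraminidase activity measured with MUNANA substrate (1 h, 37 °C); 4-MU fluorescence at ex 365/em 450 nm.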

The test system of assay [6] is LXFL 1121. As to the kind of experiment: Cytotoxicity, propidium iodide-based monolayer assay. The conditions noted are these: 96 h; LXFL 1121, lung large cell carcinoma; four days of treatment; T/C=50%; read-out: Absolute IC50. As to the method: as §1
Therefore, the compounds have a cytotoxicity against tumor cells and can be used for treating cancer. Materials and Methods Compound Handling A working stock solution of the test compounds was prepared in DMSO at a concentration of 33 mM or 8.25 mM, and small aliquots were stored at −20° C. On each day of an experiment, a frozen aliquot of the working stock solution was thawed and stored at room temperature prior to and during treatment. All liquid handling steps were performed using the Tecan Freedom EVO 200 platform. First, serial 2-fold dilutions of the 33 mM DMSO working stock solution were done in DMSO. […] Briefly, cells were harvested from exponential phase cultures, counted and plated in 96 well flat-bottom microtiter plates at a cell density of 4,000 to 40,000 cells/well dependent on the cell line's growth rate. […] After an incubation period of 1-2 hours at room temperature, fluorescence (FU) was measured using the Enspire Multimode Plate Reader (excitation λ=530 nm, emission λ=620 nm) to quantify the amount of attached viable cells. […]

Here are results for 1 compound from US11840527B2, “Non-fused thiophene derivatives and their uses” (ENYO PHARMA, priority 2018, dated 2023).

As a reminder, the IC50 is the concentration that gives 50% inhibition.

As for `O=C(Nc1scc(-c2ccc(Cl)c(F)c2)c1C(=O)O)c1ccccc1` [Compound #2, 2-Benzamido-4-(4-chloro-3-fluoro-phenyl)thiophene-3-carboxylic acid], the half-maximal inhibitory concentration (IC50) in assay [1] was determined as 4.48 µM; in assay [2], 4.74 µM; in assay [3], 11.9 µM; in assay [4], 6.56 µM; in assay [5] it was 0.21 µM; in assay [6], 10.7 µM.
